Experimental data: PubChem BioAssay AID1919007 (Molecular Pharmacology Branch, DTP, NCI, 2023)
pIC50: −log10 of the molar value.

System: A498 complex spheroids with HUVEC/MSC, growth
Assay: Anticancer human tumor A498 cell line growth inhibition [AhR];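 also: seven day exposure starting three days after spheroid seeding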;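 as to viability, T/C: luminescence signal used as a surrogate for viable cells; luminescence viability scaled so 100% equals DMSO vehicle wells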
Settings: for pIC50: curve of first compound; for viability, T/C: stronger effect = lower value
Procedure, shortened: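 Spheroids combined tumor cells with HUVEC endothelial cells and human MSCs as stroma. AhR antagonists were paired with standard or investigational drugs, each dosed in half-log steps down from near clinical Cmax, or from 10 microM where Cmax was unknown.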

[1] = second compound 0.1 µM, first compound 0.0316 µM
[2] = second compound 0.1 µM, first compound 0.1 µM
[3] = second compound 0.1 µM, first compound 0.316 µM
[4] = second compound 0.1 µM, first compound 1 µM
[5] = second compound 0.1 µM, first compound 3.16 µM
[6] = second compound 0.1 µM, first compound 10 µM
[7] = second compound 0.316 µM, first compound 0.0316 µM
[8] = second compound 0.316 µM, first compound 0.1 µM
[9] = second compound 0.316 µM, first compound 0.316 µM
[10] = second compound 0.316 µM, first compound 1 µM
[11] = second compound 0.316 µM, first compound 3.16 µM
[12] = second compound 0.316 µM, first compound 10 µM
[13] = second compound 1 µM, first compound 0.0316 µM
[14] = second compound 1 µM, first compound 0.1 µM
[15] = second compound 1 µM, first compound 0.316 µM
[16] = second compound 1 µM, first compound 1 µM
[17] = second compound 1 µM, first compound 3.16 µM
[18] = second compound 1 µM, first compound 10 µM
[19] = second compound 3.16 µM, first compound 0.0316 µM
[20] = second compound 3.16 µM, first compound 0.1 µM
[21] = second compound 3.16 µM, first compound 0.316 µM
[22] = second compound 3.16 µM, first compound 1 µM
[23] = second compound 3.16 µM, first compound 3.16 µM
[24] = second compound 3.16 µM, first compound 10 µM
[25] = second compound 10 µM, first compound 0.0316 µM
[26] = second compound 10 µM, first compound 0.1 µM
[27] = second compound 10 µM, first compound 0.316 µM
[28] = second compound 10 µM, first compound 1 µM
[29] = second compound 10 µM, first compound 3.16 µM
[30] = second compound 10 µM, first compound 10 µM

Nc1ccn(C2OC(CO)C(O)C2(F)F)c(=O)n1 (stereo not given) + Cc1ccccc1N=Nc1ccc(NC(=O)c2ccnn2C)c(C)c1
pIC50 (second compound 0.1 µM): > 7.50 | pIC50 (second compound 0.316 µM): > 7.50 | pIC50 (second compound 1 µM): > 7.50 | pIC50 (second compound 3.16 µM): > 7.50 | pIC50 (second compound 10 µM): > 7.50 | viability, T/C [1]: 33.3% | viability, T/C [2]: 36% | viability, T/C [3]: 39.9% | viability, T/C [4]: 47.9% | viability, T/C [5]: 46.9% | viability, T/C [6]: 43.5% | viability, T/C [7]: 30.9% | viability, T/C [8]: 33.1% | viability, T/C [9]: 43.9% | viability, T/C [10]: 44.8% | viability, T/C [11]: 50.5% | viability, T/C [12]: 38% | viability, T/C [13]: 35.5% | viability, T/C [14]: 33.2% | viability, T/C [15]: 44% | viability, T/C [16]: 50.7% | viability, T/C [17]: 42.7% | viability, T/C [18]: 38.2% | viability, T/C [19]: 37% | viability, T/C [20]: 37.5% | viability, T/C [21]: 46.5% | viability, T/C [22]: 41.8% | viability, T/C [23]: 44.6% | viability, T/C [24]: 38.8% | viability, T/C [25]: 37.4% | viability, T/C [26]: 40.8% | viability, T/C [27]: 46.6% | viability, T/C [28]: 45.7% | viability, T/C [29]: 44.7% | viability, T/C [30]: 40.9%

Cc1cncc(-c2nc(NCCc3c[nH]c4ccccc34)c3ncn(C(C)C)c3n2)c1
viability, T/C (compound 0.1 µM): 90% [middle of 20 runs] | viability, T/C (compound 0.316 µM): 95.3% [middle of 20 runs] | viability, T/C (compound 1 µM): 87.7% [middle of 20 runs] | viability, T/C (compound 10 µM): 4.87% [middle of 19 runs] | IC50 (compound alone, run of 08/16/2022): 3.7 µM [middle of 24 runs]

CC[C@@]1(O)C(=O)OCc2c1cc1n(c2=O)Cc2cc3c(CN(C)C)c(O)ccc3nc2-1 + Cc1ccccc1N=Nc1ccc(NC(=O)c2ccnn2C)c(C)c1
pIC50 (second compound 0.1 µM): < 7.00 | pIC50 (second compound 0.316 µM): < 7.00 | pIC50 (second compound 1 µM): < 7.00 | pIC50 (second compound 3.16 µM): < 7.00 | pIC50 (second compound 10 µM): < 7.00 | viability, T/C (second compound 0.1 µM, first compound 0.000316 µM): 88.9% | viability, T/C (second compound 0.1 µM, first compound 0.001 µM): 93.4% | viability, T/C (second compound 0.1 µM, first compound 0.00316 µM): 87.9% | viability, T/C (second compound 0.1 µM, first compound 0.01 µM): 80.7% | viability, T/C [1]: 75.7% | viability, T/C [2]: 74.7% | viability, T/C (second compound 0.316 µM, first compound 0.000316 µM): 90.7% | viability, T/C (second compound 0.316 µM, first compound 0.001 µM): 99.7% | viability, T/C (second compound 0.316 µM, first compound 0.00316 µM): 92.8% | viability, T/C (second compound 0.316 µM, first compound 0.01 µM): 81% | viability, T/C [7]: 74.3% | viability, T/C [8]: 74.2% | viability, T/C (second compound 1 µM, first compound 0.000316 µM): 87.5% | viability, T/C (second compound 1 µM, first compound 0.001 µM): 92.7% | viability, T/C (second compound 1 µM, first compound 0.00316 µM): 86.9% | viability, T/C (second compound 1 µM, first compound 0.01 µM): 68% | viability, T/C [13]: 71.5% | viability, T/C [14]: 66.5% | viability, T/C (second compound 3.16 µM, first compound 0.000316 µM): 87.3% | viability, T/C (second compound 3.16 µM, first compound 0.001 µM): 90.4% | viability, T/C (second compound 3.16 µM, first compound 0.00316 µM): 87.7% | viability, T/C (second compound 3.16 µM, first compound 0.01 µM): 74.7% | viability, T/C [19]: 69.8% | viability, T/C [20]: 64.2% | viability, T/C (second compound 10 µM, first compound 0.000316 µM): 84% | viability, T/C (second compound 10 µM, first compound 0.001 µM): 84.7% | viability, T/C (second compound 10 µM, first compound 0.00316 µM): 89.1% | viability, T/C (second compound 10 µM, first compound 0.01 µM): 76.5% | viability, T/C [25]: 78% | viability, T/C [26]: 63.4%

CC(C)c1c(-c2ccccc2)nc2c(C#N)c[nH]n2c1=O + Cc1ccccc1N=Nc1ccc(NC(=O)c2ccnn2C)c(C)c1
pIC50 (second compound 0.1 µM): < 5.00 | pIC50 (second compound 0.316 µM): < 5.00 | pIC50 (second compound 1 µM): < 5.00 | pIC50 (second compound 3.16 µM): < 5.00 | pIC50 (second compound 10 µM): < 5.00 | viability, T/C [1]: 78.9% | viability, T/C [2]: 84.9% | viability, T/C [3]: 83.2% | viability, T/C [4]: 81.8% | viability, T/C [5]: 80.2% | viability, T/C [6]: 84.2% | viability, T/C [7]: 87.7% | viability, T/C [8]: 88.5% | viability, T/C [9]: 89.7% | viability, T/C [10]: 85.9% | viability, T/C [11]: 82.8% | viability, T/C [12]: 89.5% | viability, T/C [13]: 80.1% | viability, T/C [14]: 74.6% | viability, T/C [15]: 86.8% | viability, T/C [16]: 78.1% | viability, T/C [17]: 76.7% | viability, T/C [18]: 77.5% | viability, T/C [19]: 77.2% | viability, T/C [20]: 79.2% | viability, T/C [21]: 79.6% | viability, T/C [22]: 76.8% | viability, T/C [23]: 72.7% | viability, T/C [24]: 78.1% | viability, T/C [25]: 80.2% | viability, T/C [26]: 81.7% | viability, T/C [27]: 74.3% | viability, T/C [28]: 81% | viability, T/C [29]: 71.8% | viability, T/C [30]: 74.1%

Nc1ncn(C2CC(O)C(CO)S2)c(=O)n1 (stereo not given) + Cc1cncc(-c2nc(NCCc3c[nH]c4ccccc34)c3ncn(C(C)C)c3n2)c1
pIC50 (second compound 0.1 µM): < 6.52 | pIC50 (second compound 0.316 µM): < 6.52 | pIC50 (second compound 1 µM): < 6.52 | pIC50 (second compound 3.16 µM): > 9.02 | pIC50 (second compound 10 µM): > 9.02 | viability, T/C (second compound 0.1 µM, first compound 0.000949 µM): 90.1% | viability, T/C (second compound 0.1 µM, first compound 0.003 µM): 89.7% | viability, T/C (second compound 0.1 µM, first compound 0.00949 µM): 92.5% | viability, T/C (second compound 0.1 µM, first compound 0.03 µM): 77.8% | viability, T/C (second compound 0.1 µM, first compound 0.0949 µM): 73.7% | viability, T/C (second compound 0.1 µM, first compound 0.3 µM): 63.3% | viability, T/C (second compound 0.316 µM, first compound 0.000949 µM): 94.1% | viability, T/C (second compound 0.316 µM, first compound 0.003 µM): 104% | viability, T/C (second compound 0.316 µM, first compound 0.00949 µM): 95% | viability, T/C (second compound 0.316 µM, first compound 0.03 µM): 86.9% | viability, T/C (second compound 0.316 µM, first compound 0.0949 µM): 80.6% | viability, T/C (second compound 0.316 µM, first compound 0.3 µM): 68.3% | viability, T/C (second compound 1 µM, first compound 0.000949 µM): 83.6% | viability, T/C (second compound 1 µM, first compound 0.003 µM): 86% | viability, T/C (second compound 1 µM, first compound 0.00949 µM): 80.4% | viability, T/C (second compound 1 µM, first compound 0.03 µM): 73.4% | viability, T/C (second compound 1 µM, first compound 0.0949 µM): 75.2% | viability, T/C (second compound 1 µM, first compound 0.3 µM): 68.2% | viability, T/C (second compound 3.16 µM, first compound 0.000949 µM): 32.3% | viability, T/C (second compound 3.16 µM, first compound 0.003 µM): 33.6% | viability, T/C (second compound 3.16 µM, first compound 0.00949 µM): 36.5% | viability, T/C (second compound 3.16 µM, first compound 0.03 µM): 27.1% | viability, T/C (second compound 3.16 µM, first compound 0.0949 µM): 29.6% | viability, T/C (second compound 3.16 µM, first compound 0.3 µM): 28.2% | viability, T/C (second compound 10 µM, first compound 0.000949 µM): 5.79% | viability, T/C (second compound 10 µM, first compound 0.003 µM): 5.22% | viability, T/C (second compound 10 µM, first compound 0.00949 µM): 5.53% | viability, T/C (second compound 10 µM, first compound 0.03 µM): 6.62% | viability, T/C (second compound 10 µM, first compound 0.0949 µM): 4.93% | viability, T/C (second compound 10 µM, first compound 0.3 µM): 5.47%

Nc1ccccc1NC(=O)c1ccc(CNC(=O)OCc2cccnc2)cc1 + Cc1ccccc1N=Nc1ccc(NC(=O)c2ccnn2C)c(C)c1
pIC50 (second compound 0.1 µM): 5.82 | pIC50 (second compound 0.316 µM): 5.78 | pIC50 (second compound 1 µM): 5.84 | pIC50 (second compound 3.16 µM): 5.92 | pIC50 (second compound 10 µM): 5.94 | viability, T/C [1]: 101% | viability, T/C [2]: 91.4% | viability, T/C [3]: 82.5% | viability, T/C [4]: 64.6% | viability, T/C [5]: 26.8% | viability, T/C [6]: 1.44% | viability, T/C [7]: 123% | viability, T/C [8]: 92.6% | viability, T/C [9]: 86.5% | viability, T/C [10]: 72% | viability, T/C [11]: 28.5% | viability, T/C [12]: 1.77% | viability, T/C [13]: 103% | viability, T/C [14]: 96.2% | viability, T/C [15]: 82% | viability, T/C [16]: 61.5% | viability, T/C [17]: 27.3% | viability, T/C [18]: 1.56% | viability, T/C [19]: 89.3% | viability, T/C [20]: 91.6% | viability, T/C [21]: 74.4% | viability, T/C [22]: 54% | viability, T/C [23]: 26.9% | viability, T/C [24]: 1.8% | viability, T/C [25]: 84% | viability, T/C [26]: 80.7% | viability, T/C [27]: 67.8% | viability, T/C [28]: 53.6% | viability, T/C [29]: 29.6% | viability, T/C [30]: 1.63%
